For assay [1], the target named is muscarinic acetylcholine receptors. Put plainly: Inhibition of specific binding of 3H-Oxotremorine-M (3H-Oxo) to rat cortex membranes. Details: species or system male Wistar rats. The settings on record: 1.0 nM 3H-Oxotremorine, 30 min, 25° C., pH 7.4. The source says: The pharmacological properties of the compounds of the invention can be illustrated by determining their capability to inhibit the specific binding of ^3 H-Oxotremorine-M (^3 H-Oxo). Birdsdall N. J. M., Hulme E. C., and Burgen A. S. V. (1980). "The Character of Muscarinic Receptors in Different Regions of the Rat Brain". Proc. Roy. Soc. London (Series B) 207,1.
^3 H-Oxo labels muscarinic receptor in the CNS (with a preference for agonist domains of the receptors). Three different sites are labeled by ^3 H-Oxo. […] Using the present experimental conditions only the high and medium affinity sites are determined.
The inhibitory effects of compounds on ^3 H-oxo binding reflects the affinity for muscarinic acetylcholine receptors.
All preparations are performed at 0-4° C. unless otherwise indicated. Fresh cortex (0.1-1 g) from male Wistar rats (150-250 g) is homogenized for 5-10 s in 10 mL […] Hepes pH: 7.4, with an Ultra-Turrax homogenizer. The homogenizer is rinsed with 10 mL of buffer and the combined suspension centrifuged for 15 min. at 40,000×g. The pellet is washed three times with buffer. In each step the pellet is homogenized as before in 2×10 mL of buffer and centrifuged for 10 min. at 40,000×g.
The final pellet is homogenized in 20 mM Hepes pH: 7.4 (100 mL per g of original tissue) and used for binding assay. Aliquots of 0.5 mL is added 25 μL of test solution and 25 μL of ^3 H-Oxotremorine (1.0 nM, final concentration) mixed and incubated for 30 min. at 25° C. Non-specific binding is determined in triplicate using arecoline (1 μg/mL, final concentration) as the test substance. After incubation samples are added 5 mL of ice-cold buffer and poured directly onto Whatman GF/C glass fiber filters under suction and immediately washed 2 times with 5 mL of ice-cold buffer. The amount of radioactivity on the filters are determined by conventional liquid scintillation counting. Specific binding is total binding minus non specific binding.
Test substances are dissolved in 10 mL water (if necessary heated on a steam-bath for less than 5 min.) at a concentration of 2.2 mg/mL. 25-75% inhibition of specific binding must be obtained before calculation of IC50. The test value will be given as IC50 (the concentration (nM) of the test substance which inhibits the specific binding of ^3 H-oxo by 50%). IC50 =(applied test substance concentration) x([…])nM where Co is specific binding in control assays and Cx is the specific binding in the test assay. (The calculations assume normal mass-action kinetics).

Assay [2] has as its target T1, muscarinic receptors (M1-site, pirenzepine sensitive site) (Rattus norvegicus, UniProt P08482).
T1 construct: from tissue; host or cells: cerebral cortex membranes of male Wistar rats
T1 sequence (P08482 1-460): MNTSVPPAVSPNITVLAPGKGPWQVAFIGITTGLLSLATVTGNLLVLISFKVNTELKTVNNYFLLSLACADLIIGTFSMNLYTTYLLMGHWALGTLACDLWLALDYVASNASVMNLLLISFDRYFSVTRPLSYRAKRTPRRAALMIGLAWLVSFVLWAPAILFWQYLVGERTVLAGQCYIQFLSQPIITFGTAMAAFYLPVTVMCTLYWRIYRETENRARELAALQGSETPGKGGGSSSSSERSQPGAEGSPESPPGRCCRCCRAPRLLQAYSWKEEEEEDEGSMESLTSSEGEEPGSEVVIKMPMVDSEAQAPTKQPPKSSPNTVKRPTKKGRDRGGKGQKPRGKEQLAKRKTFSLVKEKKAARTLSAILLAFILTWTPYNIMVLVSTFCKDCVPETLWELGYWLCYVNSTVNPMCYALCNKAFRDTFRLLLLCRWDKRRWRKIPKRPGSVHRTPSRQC
The assay can be described thus: Inhibition of 3HPRZ (pirenzepine, [N-methyl-3H]) binding to rat cerebral cortex membranes. Details: species or system male Wistar rats. The settings on record: rat cerebral cortex, 1.0 nM 3HPRZ, 60 min, 20° C., pH 7.4; read-out: 3HPRZ IC50. As for the experimental part: Furthermore the pharmacological properties of the compounds of the invention can also be illustrated by determining their capability to inhibit ^3 HPRZ (pirenzepine, [N-methyl-^3 H]) binding to rat cerebral cortex membranes.
Pirenzepine binds selectively to subtype of muscarinic receptors. Historically the type is named the M1 -site, whereas pirenzepine sensitive site would be more appropriate.
All preparations are performed at 0-4° C. unless otherwise indicated. Fresh cortex ([…]) from male Wistar rats (150-200 g) is homogenized for 5-10 s in 10 mL 20 mM Hepes pH: 7.4, with an Ultra-Turrax homogenizer. The homogenizer is rinsed with 2×10 mL of buffer and the combined suspension centrifuged for 15 min. at 40,000×g. The pellet is washed three times with buffer. In each step the pellet is homogenized as before in 3×10 mL of buffer and centrifuged for 10 min. at 40,000×g.
The final pellet is homogenized in 20 MM Hepes pH: 7.4 (100 mL per g of original tissue) and used for binding assay. Aliquots of 0.5 mL is added 20 μL of test solution and 25 μL of ^3 HPRZ (1.0 nM, final conc.), mixed and incubated for 60 min. at 20° C. Non-specific binding is determined in triplicate using atropine (1.0 μg/mL, final conc.) as the test substance. After incubation samples are added 5 mL of ice-cold buffer and poured directly onto Whatman GF/C glass fiber filters under suction and immediately washed 2 times with 5 mL of ice-cold buffer.
The amount of radioactivity on the filters are determined by conventional liquid scintillation counting. Specific binding is total binding minus non-specific binding.
Test substances are dissolved in 10 mL water, at a concentration of 0.22 mg/mL. 25-75% inhibition of specific binding must be obtained before calculation of IC50.
The test value will be given as IC50 (the concentration (nM) of the test substance which inhibits the specific binding of ^3 HPRZ by 50%). IC50 =(applied test substance concentration) x(Cx /Co -Cx)nM where Co is specific binding in control assays and Cx is the specific binding in the test assay. (The calculations assume normal mass-action kinetics).

The target of another assay is nicotinic receptors. The assay can be described thus: Nicotinic channel receptor binding: [3H]-cystine binding to crude synaptic membranes from whole rat brain. The settings on record: 1.25 nM [3H-cystine], about 60 min, about 4° C. As for the experimental part:
Nicotinic Channel Receptor Binding Protocol:
The activity of the compounds claimed herein at the nicotinic receptor can be accomplished by the following assay.
Binding of […] to nicotinic receptors was accomplished using crude synaptic membrane preparations from whole rat brain (Pabreza et al. Molecular Pharmacol., 1990, 39:9). Washed membranes were stored at about -80° C. prior to use. Frozen aliquots were slowly thawed and resuspended in 20 volumes of buffer (containing: […] NaCl, 5 mM KCl, 2 mM MgCl2, 2 mM Tris-Cl, ph 7.4 @4° C.). After centrifuging at 20,000×g for 15 minutes, the pellets were resuspended in about 30 volumes of buffer. Homogenate (containing about 125-150 ug protein) was added to tubes containing concentrations of test compound and [^3 H-cystine] (1.25 nM) in a final volume of 500 uL. Samples were incubated for about 60 minutes at about 4° C., then rapidly filtered through GF/B filters presoaked in 0.5% polyethylimine using 3×4 mL of ice cold buffer. The filters were counted.

Assay [3] has as its system M1-sites of muscarinic receptors. The settings on record: general statement; cited from earlier work.
The test system of assay [4] is M2-sites of muscarinic receptors. The settings on record: general statement; cited from earlier work.

`c1cnc(O[C@H]2CN3CCC[C@@H]2C3)cn1` (relative stereo) [Compound 21, 2-[endo-(+,-)-6-(1-azabicyclo[3.2.1]octyloxy)]-pyrazine]: the IC50 (in general, the concentration that inhibits the measured activity by half) in assay [1] was found to be 0.026 µM; in assay [2] it was 0.123 µM. Also, on nicotinic receptors, the Ki (in general, a dissociation constant, usually derived from enzyme kinetics or from competition with a known ligand) turned out to be 0.13 µM.

As to `Clc1cncc(O[C@@H]2CN3CCC[C@H]2C3)n1` (relative stereo) [Compound 22, 6-Chloro-2-[endo-(+,-)-6-(1-azabicyclo[3.2.1]octyloxy)]-pyrazine], the results for the concentration for half-maximal inhibition (IC50) in assay [1] and in assay [2] were 0.14 µM and 0.052 µM, respectively. This molecule returned an inhibition constant (Ki) on nicotinic receptors of 0.21 µM.

In the case of `CN1CCN(CC(=O)N2c3ccccc3C(=O)Nc3cccnc32)CC1` [pirenzepine], in assay [3], the muscarinic subtype selectivity result is reported as “selective for M1 -sites”. In addition, the “interaction with M2-sites” value in assay [4] was “also interact with M2 -sites”.
